Measured values: US11566056B2, “Peptide and use thereof for treatment of disease of brain and nervous system” (SYLUS CO., LTD, priority 2020, dated 2023)
Values joined by “and” are separate entries in the source; they are usually repeats but may differ in a detail not shown here. Equal entries are not always repeated. Ends that are not written are not given here.

What was measured:
HT-22 cells = assay: cell viability under hypoxia-reoxygenation (H/R) conditions; format: cell-based; parameters: cell viability under hypoxia-reoxygenation conditions / cell viability under hypoxia-reoxygenation conditions, Average: unit not given here; conditions: for cell viability under hypoxia-reoxygenation conditions, Average: average of 3; for cell viability under hypoxia-reoxygenation conditions: individual replicate
Protocol: First, the degree of cell viability was confirmed. Specifically, HT-22 cells cultured on a 96-well plate or a 6-well plate for 24 hours were maintained under hypoxic condition for 18 hours in a sealed airtight container of Anaeropack (Mitsubishi Gas Company, Tokyo, Japan). The Anaeropack absorbs oxygen and generates carbon dioxide, thereby inducing a hypoxic environment. Next, reoxygenation was performed at 5% CO2 and 37° C. for 3 hours.
Cell viability was compared when treated with SY-1, SY-2 and SY-3 of H/R cells cultured under low oxygen conditions (Hypoxia) and later cultured under oxygen conditions (Reoxygenation).

[1] = molecular target: T1, Soluble mouse EPOR chimera protein (Mus musculus, UniProt P14753); assay: surface plasmon resonance (SPR) binding to erythropoietin receptor; conditions: peptide 5, 2.5 and 1.25 μM
T1 construct: Soluble mouse EPOR chimera protein; purchased R&D Systems
T1 sequence (P14753 25-249 limits assumed): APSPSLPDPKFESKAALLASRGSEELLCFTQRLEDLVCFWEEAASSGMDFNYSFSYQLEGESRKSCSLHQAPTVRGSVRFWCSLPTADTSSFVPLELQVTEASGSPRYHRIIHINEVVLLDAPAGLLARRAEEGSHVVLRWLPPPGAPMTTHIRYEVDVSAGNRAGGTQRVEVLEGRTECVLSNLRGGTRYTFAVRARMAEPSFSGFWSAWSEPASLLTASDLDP
Protocol: The SPR technique uses an optical principle to measure the interaction between biomolecules in real time without a specific label, and is a system that analyzes the affinity and kinetics between two molecules, that is, Ka (association rate) and Kd (dissociation rate).
Specifically, the real-time SPR analysis was performed using Reichert SPR Biosensor SR 7500C equipment (Reichert Inc., NY, USA). Receptor mouse EPOR chimera protein (Soluble mouse EPOR chimera protein)(R&D Systems, Minneapolis, Minn., USA) was covalently bonded to a chip (BR-1005-39, Pharmacia Biosensor AB) coated with carboxy methylated dextran matrix by an amine coupling procedure using an amine coupling kit (BR-1000-50, GE Healthcare, USA) according to the manufacturer's manual. Peptides having concentrations of 5, 2.5 and 1.25 μM according to the present disclosure and scrambled peptides were tested by flowing at a flow rate of 5 μl/minute. In addition, the experiment was independently repeated to increase the accuracy. In addition, DMSO was flowed at 5 μl/minute to normalize the signal. After sufficiently inducing the binding of the peptide of an aspect to the receptor, regeneration was induced by injecting 20 μl/minute of 25 mM acetic acid into a sensor chip.

ka [1] | kd [1] | Sequence | cell viability under hypoxia-reoxygenation conditions, Average (HT-22 cells; 1 uM) | cell viability under hypoxia-reoxygenation conditions (HT-22 cells; 1 uM) | cell viability under hypoxia-reoxygenation conditions, Average (HT-22 cells; 2.5 uM) | cell viability under hypoxia-reoxygenation conditions (HT-22 cells; 2.5 uM) | cell viability under hypoxia-reoxygenation conditions, Average (HT-22 cells; 5 uM) | cell viability under hypoxia-reoxygenation conditions (HT-22 cells; 5 uM) | cell viability under H/R conditions (in words) (HT-22 cells; hypoxia 18 hours, reoxygenation 3 hours)
31.5970 | 0.0446 | LQLHVLKAVSGLRTLTTLLRALG [SY-1] | 0.654 | 0.662 and 0.657 and 0.644 | 0.655 | 0.649 and 0.663 and 0.652 | 0.647 | 0.648 and 0.653 and 0.641 | –
25.6240 | 0.0554 | LQLHVLKAVAGLRTLTMIRRALA [SY-3] | 0.726 | 0.722 and 0.736 and 0.719 | 0.735 | 0.739 and 0.741 and 0.724 | 0.727 | 0.707 and 0.732 and 0.741 | the cell viability was the highest
32.5770 | 0.0506 | LQLHVLKAVSGLRTLTMIRRALG [SY-2] | 0.671 | 0.658 and 0.673 and 0.682 | 0.676 | 0.671 and 0.667 and 0.689 | 0.661 | 0.652 and 0.677 and 0.655 | –
